Measurements reported in US20150005288A1, “SUBSTITUTED PHENYLIMIDAZOPYRAZOLES AND USE THEREOF” (Bayer Intellectual Property GmbH, priority 2012, published 2015).

Each compound was assayed against T1, intracellular domain of human Tie2 (GST fusion protein) (Homo sapiens, UniProt Q02763) (assay: Tie2 kinase assay (Tie2-TR-FRET)). Conditions: ATP concentration 1 mM, in some cases means of several independent determinations.
T1 construct: intracellular domain of human Tie2 (amino acids 776-1124); made in house; host or cells: Baculovirus-infected insect cells (Hi5)
Type: biochemical
Method: The Tie2-inhibitory activity of the substances according to the invention was determined with the aid of one of the Tie2-TR-FRET assays described in the sections below at an ATP concentration of 1 mM (TR-FRET=Time-Resolved Fluorescence Resonance Energy Transfer):
The enzyme used was a recombinant fusion protein of glutathione S-transferase (GST) and the intracellular domain of human Tie2 (amino acids 776-1124) which was expressed in Baculovirus-infected insect cells (Hi5) and was purified by affinity chromatography on glutathione-Sepharose. Alternatively, it is also possible to use commercially available GST-His6-Tie2 fusion protein (ProQinase GmbH, Freiburg im Breisgau, Germany). The substrate used for the kinase reaction was the biotinylated peptide biotin-Ahx-[…] (C-terminus in amide form) which is commercially available (for example from Biosyntan, Berlin, Germany).
For the assay, 50 nl of a 100-fold concentrated solution of the respective test substance in DMSO were pipetted into a black low-volume 384-well microtitre plate (Greiner Bio-One, Frickenhausen, Germany) 2 μl of a solution of the Tie2 fusion protein in assay buffer [50 mM HEPES/HCl pH 7, 10 mM MgCl2, 2.5 mM MnCl2, 1 mM dithiothreitol, 0.01% (v/v) Nonidet P-40, 0.1% (w/v) bovine serum albumin (BSA), 1× Complete EDTA-free protease inhibitor mixture (Roche)] were added, and the mixture was incubated for 15 min to allow pre-binding of the substance to the enzyme prior to the kinase reaction. The kinase reaction was then started by adding 3 μl of a solution of adenosine triphosphate (ATP, 1.67 mM→final concentration in 5 μl assay volume=1 mM) and substrate (1.67 μM→final concentration in 5 μl assay volume=1 μM) in assay buffer, and the resulting mixture was incubated for a reaction time of 60 min at 22° C. The concentration of the Tie2 fusion protein was adapted to the respective activity of the enzyme and adjusted such that the assay was carried out in the linear range. Typical concentrations were in the range of 30 ng/ml.
The reaction was stopped by addition of 5 μl of a solution of TR-FRET detection reagents [200 nM streptavidin-XL665 and 2 nM PT66-Eu chelate, a europium chelate-labelled anti-phosphotyrosine antibody (Perkin-Elmer); alternatively, it is also possible to use PT66-Tb cryptate (Cisbio Bioassays, Codolet, France)] in aqueous EDTA solution[90 mM EDTA, 0.28% (w/v) bovine serum albumin (BSA) in 50 mM HEPES pH 7.5]. The resulting mixture was incubated at 22° C. for 1 h to allow formation of the complex of the biotinylated phosphorylated substrate and the detection reagents. The amount of phosphorylated substrate was then determined by measuring the resonance energy transfer from PT66-Eu chelate to streptavidin-XL665. To this end, the fluorescence emissions at 620 nm and 665 nm after excitation at 350 nm were measured in a TR-FRET measuring instrument (for example Viewlux, Perkin-Elmer). The ratio of the emissions at 665 nm and at 620 nm was taken as a measure of the amount of phosphorylated substrate.
Usually, the test substance in question was tested on the same microtitre plate at […] different concentrations in the range from 20 μM to 0.073 nM (for example at 20 μM, 5.7 μM, 1.6 μM, 0.47 μM, 0.13 μM, 38 nM, 11 nM, 3.1 nM, 0.89 nM, 0.25 nM and 0.073 nM) in duplicate for each concentration. The dilution series were prepared prior to the assay at the stage of the 100-fold concentrated solution by serial dilution (the exact concentrations may vary depending on the pipettors used in each case). IC50 values were calculated using a 4-parameter fit, with the aid of inhouse software.
Table 1 below lists the IC50 values from this assay for individual working examples (in some cases as means of several independent individual determinations): […]

T1 sequence (Q02763 776-1124): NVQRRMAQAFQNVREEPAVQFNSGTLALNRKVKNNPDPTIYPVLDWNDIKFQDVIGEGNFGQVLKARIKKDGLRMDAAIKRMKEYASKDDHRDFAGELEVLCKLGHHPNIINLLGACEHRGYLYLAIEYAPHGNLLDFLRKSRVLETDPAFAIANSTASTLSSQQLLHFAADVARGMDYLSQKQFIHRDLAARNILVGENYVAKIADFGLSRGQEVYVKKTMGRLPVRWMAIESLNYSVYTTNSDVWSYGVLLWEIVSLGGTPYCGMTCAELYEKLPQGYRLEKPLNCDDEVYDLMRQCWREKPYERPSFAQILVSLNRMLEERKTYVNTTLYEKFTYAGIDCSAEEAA

Structure (SMILES)	IC50
Cc1ccc(NC(=O)c2cc(N3CCNCC3)cc(S(F)(F)(F)(F)F)c2)cc1-n1ccn2nc(-c3cn[nH]c3)cc12 [Example 1, N-{4-Methyl-3-[6-(1H-pyrazol-4-yl)-1H-imidazo[1,2-b]pyrazol-1-yl]phenyl}-3-(pentafluoro-λ^6-sulphanyl)-5-(piperazin-1-yl)benzamide]	0.3 nM
Cc1ccc(NC(=O)c2cccc(C(F)(F)F)c2)cc1-n1ccn2nc(-c3cn[nH]c3)cc12 [Example 5, N-{4-Methyl-3-[6-(1H-pyrazol-4-yl)-1H-imidazo[1,2-b]pyrazol-1-yl]phenyl}-3-(trifluoromethyl)-benzamide]	380 nM
Cc1ccc(NC(=O)c2cccc(C(C)(C)C)c2)cc1-n1ccn2nc(-c3cn[nH]c3)cc12 [Example 7, 3-tert-Butyl-N-{4-methyl-3-[6-(1H-pyrazol-4-yl)-1H-imidazo[1,2-b]pyrazol-1-yl]phenyl}-benzamide]	105 nM
Cc1ccc(NC(=O)c2cc(N3CCN(C)CC3)cc(C(C)(C)C)c2)cc1-n1ccn2nc(-c3cn[nH]c3)cc12 [Example 8, 3-tert-Butyl-5-(4-methylpiperazin-1-yl)-N-{4-methyl-3-[6-(1H-pyrazol-4-yl)-1H-imidazo[1,2-b]-pyrazol-1-yl]phenyl}benzamide]	1.9 nM
Cc1ccc(NC(=O)c2cc(CN3CCCC3)cc(C(C)(C)C)c2)cc1-n1ccn2nc(-c3cn[nH]c3)cc12 [Example 9, 3-tert-Butyl-N-{4-methyl-3-[6-(1H-pyrazol-4-yl)-1H-imidazo[1,2-b]pyrazol-1-yl]phenyl}-5-(pyrrolidin-1-ylmethyl)benzamide]	6.7 nM
Cc1ccc(NC(=O)c2cc(N3CCNCC3)cc(S(F)(F)(F)(F)F)c2)cc1-n1cc(C)n2nc(-c3cn[nH]c3)cc12 [Example 10, N-{4-Methyl-3-[3-methyl-6-(1H-pyrazol-4-yl)-1H-imidazo[1,2-b]pyrazol-1-yl]phenyl}-3-(pentafluoro-λ^6-sulphanyl)-5-(piperazin-1-yl)benzamide]	0.3 nM
Cc1ccc(NC(=O)c2cc(N3CCN(C)CC3)cc(S(F)(F)(F)(F)F)c2)cc1-n1cc(C)n2nc(-c3cn[nH]c3)cc12 [Example 11, N-{4-Methyl-3-[3-methyl-6-(1H-pyrazol-4-yl)-1H-imidazo[1,2-b]pyrazol-1-yl]phenyl}-3-(4-methylpiperazin-1-yl)-5-(pentafluoro-λ^6-sulphanyl)benzamide]	0.3 nM
COc1cc(C(=O)Nc2ccc(C)c(-n3cc(C)n4nc(-c5cn[nH]c5)cc34)c2)cc(S(F)(F)(F)(F)F)c1 [Example 13, 3-Methoxy-N-{4-methyl-3-[3-methyl-6-(1H-pyrazol-4-yl)-1H-imidazo[1,2-b]pyrazol-1-yl]-phenyl}-5-(pentafluoro-λ^6-sulphanyl)benzamide]	1.3 nM
Cc1ccc(NC(=O)c2cc(-n3ccnc3C)cc(C(F)(F)F)c2)cc1-n1cc(C)n2nc(-c3cn[nH]c3)cc12 [Example 14, 3-(2-Methyl-1H-imidazol-1-yl)-N-{4-methyl-3-[3-methyl-6-(1H-pyrazol-4-yl)-1H-imidazo[1,2-b]-pyrazol-1-yl]phenyl}-5-(trifluoromethyl)benzamide]	0.4 nM
Cc1ccc(NC(=O)c2cccc(S(F)(F)(F)(F)F)c2)cc1-n1ccn2nc(-c3cccnc3)cc12 [Example 15, N-{4-Methyl-3-[6-(pyridin-3-yl)-1H-imidazo[1,2-b]pyrazol-1-yl]phenyl}-3-(pentafluoro-λ^6-sulphanyl)benzamide]	24 nM
Cc1ccc(NC(=O)c2cc(N3CCNCC3)cc(S(F)(F)(F)(F)F)c2)cc1-n1ccn2nc(-c3cccnc3)cc12 [Example 17, N-{4-Methyl-3-[6-(pyridin-3-yl)-1H-imidazo[1,2-b]pyrazol-1-yl]phenyl}-3-(pentafluoro-λ^6-sulphanyl)-5-(piperazin-1-yl)benzamide]	0.3 nM
Cc1ccc(NC(=O)c2cc(N3CCOCC3)cc(S(F)(F)(F)(F)F)c2)cc1-n1ccn2nc(-c3cccnc3)cc12 [Example 19, N-{4-Methyl-3-[6-(pyridin-3-yl)-1H-imidazo[1,2-b]pyrazol-1-yl]phenyl}-3-(morpholin-4-yl)-5-(pentafluoro-λ^6-sulphanyl)benzamide]	0.9 nM
